# Laboratory results reported in ChEMBL document CHEMBL1201862, “PubChem BioAssay data set” (2004).
# Calls of active or inactive are those of the source.
# What was measured:
# [1] = target: T1, Corticotropin-releasing factor receptor 2/Corticotropin-releasing factor-binding protein (Homo sapiens, UniProt P24387+Q13324); test: activators of CRF receptor 2 with binding protein – uHTS hits, confirmation (AID 602473); type: functional; details: read-out: EC50_Mean
# T1 sequence (Q13324 whole entry): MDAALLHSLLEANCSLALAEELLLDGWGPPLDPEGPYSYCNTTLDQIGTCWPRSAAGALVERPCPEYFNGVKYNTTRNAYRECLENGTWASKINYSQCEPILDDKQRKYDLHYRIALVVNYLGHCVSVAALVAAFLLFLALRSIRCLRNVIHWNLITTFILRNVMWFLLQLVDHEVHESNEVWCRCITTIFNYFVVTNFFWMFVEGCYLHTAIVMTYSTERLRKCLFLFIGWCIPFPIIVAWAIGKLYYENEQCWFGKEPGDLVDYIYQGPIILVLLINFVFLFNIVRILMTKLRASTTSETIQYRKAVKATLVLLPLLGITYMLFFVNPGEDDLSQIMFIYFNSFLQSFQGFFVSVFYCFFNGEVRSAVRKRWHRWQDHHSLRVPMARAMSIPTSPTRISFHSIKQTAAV
# T1 sequence (P24387 whole entry): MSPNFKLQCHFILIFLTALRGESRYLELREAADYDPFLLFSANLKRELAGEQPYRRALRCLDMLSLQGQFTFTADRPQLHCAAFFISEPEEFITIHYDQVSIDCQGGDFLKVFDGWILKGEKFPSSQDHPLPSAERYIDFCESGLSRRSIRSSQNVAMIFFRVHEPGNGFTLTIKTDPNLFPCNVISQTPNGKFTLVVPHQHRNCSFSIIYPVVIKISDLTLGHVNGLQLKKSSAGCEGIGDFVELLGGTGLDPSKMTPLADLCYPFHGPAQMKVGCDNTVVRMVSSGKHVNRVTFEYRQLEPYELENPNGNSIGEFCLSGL
# [2] = target: T1, Corticotropin-releasing factor receptor 2/Corticotropin-releasing factor-binding protein; test: Dose Response confirmation of uHTS hits for small molecule antagonists of the CRF-binding protein and CRF-R2 receptor complex.; type: functional; details: read-out: IC50_Mean
# Cytochrome P450 2D6 = Cytochrome P450 2D6 (Homo sapiens, UniProt P10635);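 further: CYP2D6 member of a cytochrome P450 panel assay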
# Cytochrome P450 1A2 = target: T2, Cytochrome P450 1A2 (Homo sapiens, UniProt P05177);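 further: PubChem cytochrome P450 panel assay, CYP1A2 panel member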
# T2 sequence (P05177 whole entry): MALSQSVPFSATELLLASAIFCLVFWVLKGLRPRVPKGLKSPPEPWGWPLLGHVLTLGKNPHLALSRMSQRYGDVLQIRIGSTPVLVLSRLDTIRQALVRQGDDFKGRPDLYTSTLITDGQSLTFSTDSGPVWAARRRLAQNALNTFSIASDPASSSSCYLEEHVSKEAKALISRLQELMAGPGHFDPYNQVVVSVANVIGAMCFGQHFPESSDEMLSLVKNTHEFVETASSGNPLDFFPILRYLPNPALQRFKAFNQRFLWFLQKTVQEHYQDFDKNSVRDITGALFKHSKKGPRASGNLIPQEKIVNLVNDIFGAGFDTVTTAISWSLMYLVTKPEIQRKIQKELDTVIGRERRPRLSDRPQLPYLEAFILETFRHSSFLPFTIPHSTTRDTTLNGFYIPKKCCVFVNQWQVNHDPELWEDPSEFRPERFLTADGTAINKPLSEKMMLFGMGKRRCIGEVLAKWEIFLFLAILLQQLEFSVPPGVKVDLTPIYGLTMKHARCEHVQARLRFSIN
# Cytochrome P450 3A4 = Cytochrome P450 3A4 (Homo sapiens, UniProt P08684);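 further: CYP3A4 tested as one member of a cytochrome P450 panel screen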
# Cytochrome P450 2C9 = Cytochrome P450 2C9 (Homo sapiens, UniProt P11712)
# H9c2 = test: cells; type: functional, cell-based; details: Rattus norvegicus, H9c2, Myocardium;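 further: confirmatory concentration-response retest of ultra-high-throughput screening hits for modulation of myocardial damage; cell death induced by hydrogen peroxide oxidative stress; compound pretreatment for 60 min then peroxide exposure for 2 h; potency is for protecting the cells against peroxide damage rather than for killing them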
# [3] = microbe, parasite or virus in culture; type: functional; details: Mycobacterium tuberculosis
# [4] = system: Streptococcus sp. 'group A'; test: growth inhibition of control SK(-) GAS strain, dose response, counter-screen for streptokinase expression inhibitor project, luminescence, kanamycin, BacTiterGlo, confirmation (AID 1900); type: functional, organism-based
# Streptococcus = test: Group A Streptococcus viability loss, dose response, counter-screen for streptokinase expression inhibitor project, luminescence, BacTiterGlo (AID 1915); type: functional, organism-based;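 further: potency for reduction of bacterial viability or growth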
# [5] = cytotoxicity toward NIH3T3 fibroblasts, dose response, counter-screen, cell-based, ATP luminescence, mouse fibroblasts (AID 2010); type: functional;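 further: cells exposed to compound for about 90 hours before reading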
# [6] = inhibitors of intracellular T. cruzi replication, confirmation, NIH3T3 host cells, beta-gal luminescence (AID 2044); type: functional, cell-based;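 further: intracellular parasites grown in NIH/3T3 mouse fibroblasts as host cells; luminescent beta-galactosidase reporter signal from transgenic T. cruzi replicating inside host cells; inhibitors lower the luminescence signal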
# Cytochrome P450 2C19 = Cytochrome P450 2C19 (Homo sapiens, UniProt P33261); test: Cytochrome panel assay with activity outcomes. Panel member name: p450-cyp2c19 Compounds with AC50 equal or less than 10 uM are considered active; type: functional
# [7] = Luminescence Cell-Based Dose Response HTS to Identify Activators of Luciferase Translation or Activity in H4 […] Cells. [Related pubchem assays: 1829 (Project Summary), 1814 (Primary HTS)]; type: functional
# Chain of Cytochrome P450 2C19 (P33261 whole entry): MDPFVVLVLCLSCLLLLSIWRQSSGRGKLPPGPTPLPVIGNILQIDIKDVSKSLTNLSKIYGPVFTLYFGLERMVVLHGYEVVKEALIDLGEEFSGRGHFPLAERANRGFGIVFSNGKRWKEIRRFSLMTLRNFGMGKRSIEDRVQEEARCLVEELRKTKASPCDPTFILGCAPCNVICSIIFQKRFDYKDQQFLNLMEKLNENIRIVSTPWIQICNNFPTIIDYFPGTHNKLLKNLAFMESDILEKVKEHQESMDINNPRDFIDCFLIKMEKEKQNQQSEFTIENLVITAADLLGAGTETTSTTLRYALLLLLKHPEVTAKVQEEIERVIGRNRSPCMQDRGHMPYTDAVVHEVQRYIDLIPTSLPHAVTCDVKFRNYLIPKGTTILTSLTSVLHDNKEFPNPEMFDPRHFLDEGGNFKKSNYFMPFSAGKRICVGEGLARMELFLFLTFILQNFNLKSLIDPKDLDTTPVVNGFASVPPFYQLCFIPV
# Chain of Cytochrome P450 3A4 (P08684 whole entry): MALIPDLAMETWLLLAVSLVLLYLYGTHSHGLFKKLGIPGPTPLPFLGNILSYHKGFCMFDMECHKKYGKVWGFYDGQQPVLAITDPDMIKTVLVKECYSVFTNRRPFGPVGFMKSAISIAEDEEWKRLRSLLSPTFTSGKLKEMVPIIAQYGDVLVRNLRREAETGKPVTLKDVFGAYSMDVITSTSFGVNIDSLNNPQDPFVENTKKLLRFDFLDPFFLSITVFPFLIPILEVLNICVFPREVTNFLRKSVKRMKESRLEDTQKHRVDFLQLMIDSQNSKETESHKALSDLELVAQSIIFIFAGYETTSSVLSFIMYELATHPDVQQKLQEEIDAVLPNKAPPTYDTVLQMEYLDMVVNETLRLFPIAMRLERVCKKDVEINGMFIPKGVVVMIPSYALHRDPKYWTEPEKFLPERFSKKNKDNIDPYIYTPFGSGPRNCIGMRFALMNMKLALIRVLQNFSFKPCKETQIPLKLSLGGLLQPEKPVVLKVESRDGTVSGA
# Chain of Cytochrome P450 2C9 (P11712 whole entry): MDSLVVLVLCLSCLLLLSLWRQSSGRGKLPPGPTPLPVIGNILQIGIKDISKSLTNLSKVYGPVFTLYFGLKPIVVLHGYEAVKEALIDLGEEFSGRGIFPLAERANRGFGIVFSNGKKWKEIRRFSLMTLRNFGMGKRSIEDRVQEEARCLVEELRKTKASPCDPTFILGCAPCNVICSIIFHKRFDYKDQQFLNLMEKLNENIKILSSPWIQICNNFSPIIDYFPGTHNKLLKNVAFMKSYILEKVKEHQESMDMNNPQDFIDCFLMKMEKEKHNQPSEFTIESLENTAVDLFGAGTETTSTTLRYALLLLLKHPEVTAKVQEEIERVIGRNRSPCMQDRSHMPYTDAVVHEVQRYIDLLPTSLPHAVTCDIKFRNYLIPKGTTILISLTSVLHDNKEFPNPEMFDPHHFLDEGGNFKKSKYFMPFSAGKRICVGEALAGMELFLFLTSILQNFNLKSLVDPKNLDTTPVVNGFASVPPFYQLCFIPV
# Chain of Cytochrome P450 2D6 (P10635 whole entry): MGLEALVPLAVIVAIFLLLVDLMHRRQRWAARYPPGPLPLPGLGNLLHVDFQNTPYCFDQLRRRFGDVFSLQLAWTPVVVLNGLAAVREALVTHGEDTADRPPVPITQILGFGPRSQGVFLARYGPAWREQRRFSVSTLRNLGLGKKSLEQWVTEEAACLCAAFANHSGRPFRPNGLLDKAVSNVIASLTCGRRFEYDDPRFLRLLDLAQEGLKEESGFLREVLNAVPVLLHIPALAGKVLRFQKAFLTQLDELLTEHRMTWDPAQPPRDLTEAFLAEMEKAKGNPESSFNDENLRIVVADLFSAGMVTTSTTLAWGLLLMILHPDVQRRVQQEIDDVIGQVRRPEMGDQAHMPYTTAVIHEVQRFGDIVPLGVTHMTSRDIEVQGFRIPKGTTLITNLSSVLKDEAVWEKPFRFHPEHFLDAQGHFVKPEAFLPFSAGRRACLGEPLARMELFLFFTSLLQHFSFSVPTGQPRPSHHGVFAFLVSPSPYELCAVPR
structure (smiles),measurement,setting,value
Cc1[nH]c(=O)[nH]c(=O)c1S(=O)(=O)N1CCCC(C(=O)N2CCN(c3ccccc3Cl)CC2)C1 (stereo unspecified),EC50,[1],> 53 µM (inactive)
same,IC50,[2],> 47.1 µM (inactive)
Cn1cc(-c2nc3cnc(N4CCNCC4)nc3n(Cc3ccc(F)cc3)c2=O)c2ccccc21,AC50,Cytochrome P450 2D6,20 µM (inconclusive)
same,AC50,Cytochrome P450 1A2,20 µM (inconclusive)
O=c1c(-c2cc(F)cc(F)c2)nc2cncnc2n1Cc1ccccc1Cl,AC50,Cytochrome P450 3A4,15.8 µM (inconclusive)
same,AC50,Cytochrome P450 1A2,5.01 µM (inconclusive)
CN1CCN(c2ncc3nc(-c4cc(F)cc(F)c4)c(=O)n(CCC#N)c3n2)CC1,AC50,Cytochrome P450 3A4,15.8 µM (inconclusive)
same,AC50,Cytochrome P450 2C9,31.6 µM (inconclusive)
same,AC50,Cytochrome P450 1A2,15.8 µM (inconclusive)
NC(=O)c1ccc(NCC2COc3ccccc3O2)c([N+](=O)[O-])c1 (stereo unspecified),EC50,[1],> 53 µM (inactive)
same,IC50,[2],> 47.1 µM (inactive)
O=C(Nc1cccc(O)c1)c1ccc(NC(=O)c2cccs2)cc1,EC50,[1],> 53 µM (inactive)
same,IC50,[2],> 47.1 µM (inactive)
COc1ccccc1-n1c(SCC(=O)Nc2ccccc2F)nc2nncc-2c1O,AC50,Cytochrome P450 2D6,8.91 µM (inconclusive)
same,AC50,Cytochrome P450 1A2,28.2 µM (inconclusive)
CC(=O)Nc1cccc(NC(=O)c2cc(-c3cccnc3)nc3ccc(Cl)cc23)c1,IC50,H9c2,> 79 µM (inactive)
CCCCCn1nc(C(=O)OCC(=O)c2c(N)n(C)c(=O)n(C)c2=O)c2ccccc2c1=O,IC50,H9c2,> 79 µM (inactive)
O=C(CSc1ccc(Cl)cc1)N1CCC(c2nc3ccccc3s2)CC1,CC50,[3],34.7 µM (active)
O=C(CN1CCCCC1)Nc1nc(-c2ccc(F)c(F)c2)cs1,IC50,H9c2,> 79 µM (inactive)
OC(c1ccccc1)(c1ccc(F)cc1)C(c1ccccc1)N1CCOCC1 (stereo unspecified),AC50,Cytochrome P450 2D6,14.1 µM (inconclusive)
O=C(NC(=S)N1CCN(c2nc(-c3ccccc3)cs2)CC1)c1cncc(Br)c1,EC50,[4],3.04 µM (active)
same,EC50,Streptococcus,3.91 µM (active)
Cn1c(C(=O)NCCc2ccsc2)cc2c(=O)n(C)c3ccccc3c21,IC50,H9c2,> 79 µM (inactive)
Cn1cccc1C(=O)N1CCC2(CC1)CN(Cc1cc(C(F)(F)F)cc(C(F)(F)F)c1)C2,AC50,Cytochrome P450 2D6,25.1 µM (inconclusive)
same,AC50,Cytochrome P450 1A2,10 µM (inconclusive)
Clc1nc2c(-c3ccccc3)nnn2c2ccccc12,EC50,[5],> 60 µM (not active)
same,EC50,[6],2.55 µM (active)
same,CC50,[3],27.3 µM (active)
CCOC(=O)C(Cc1ccc(NC(=O)/C(=C/c2ccc(OC(C)=O)cc2)NC(C)=O)cc1)N1C(=O)c2ccccc2C1=O (stereo unspecified),IC50,H9c2,> 79 µM (inactive)
O=C(CCCSc1nc(O)c2c3c(sc2n1)CCC3)NCCO,IC50,H9c2,> 79 µM (inactive)
CC1CCc2cc(F)ccc2N1C(=O)CSc1n[nH]c2c3cc(F)ccc3nc-2n1 (stereo unspecified),AC50,Cytochrome P450 2C19; read-out: AC50,0.562 µM (inconclusive)
same,AC50,Cytochrome P450 2D6,14.1 µM (inconclusive)
C/C(CCN1CCCCc2nc(C)c(C)cc21)=N\OC[C@@H](O)COCc1ccco1,AC50,Cytochrome P450 2D6,7.94 µM (inconclusive)
O=C(Cc1ccccc1[N+](=O)[O-])NCCSCc1c(F)cccc1Cl,AC50,Cytochrome P450 2D6,2.82 µM (inconclusive)
same,AC50,Cytochrome P450 1A2,5.62 µM (inconclusive)
Cc1ccccc1Cn1c(=O)sc2ccccc2c1=O,EC50,[1],> 53 µM (inactive)
same,IC50,[2],> 47.1 µM (inactive)
COc1cccc(C(=O)Nc2cc(C)c3c(=O)oc4ccccc4c3n2)c1,IC50,H9c2,> 79 µM (inactive)
COc1cccc(Cn2c(=O)c(-c3cccs3)nc3cnc(Nc4cccc(OC)c4)nc32)c1,AC50,Cytochrome P450 3A4,12.6 µM (inconclusive)
same,AC50,Cytochrome P450 2C9,0.794 µM (inconclusive)
same,AC50,Cytochrome P450 1A2,2.51 µM (inconclusive)
CCOC(=O)c1csc(Nc2nc3ccc(F)cc3s2)n1,EC50,[4],5.24 µM (active)
same,EC50,Streptococcus,11.4 µM (active)
Cc1cc(C)n(C(=O)CNC(=O)c2ccccc2Br)n1,EC50,[1],> 53 µM (inactive)
same,IC50,[2],> 47.1 µM (inactive)
C=CCNC(S)=NNc1ncnc2sc3c(c12)CC(C)(C)OC3,AC50,Cytochrome P450 2C19; read-out: AC50,8.91 µM (inconclusive)
same,AC50,Cytochrome P450 3A4,17.8 µM (inconclusive)
same,AC50,Cytochrome P450 2C9,8.91 µM (inconclusive)
same,AC50,Cytochrome P450 1A2,12.6 µM (inconclusive)
NC(=O)/C(=C\c1ccncc1)c1cccc2ccccc12,AC50,Cytochrome P450 2D6,2 µM (inconclusive)
CCOC(=O)c1sc(NC(=O)C(C)(C)C)cc1C,EC50,[7],13 µM (active)
O=C1CCc2cc(S(=O)(=O)N3CCC(C(=O)NC4CCCCCCC4)CC3)ccc2N1,EC50,[1],34 µM (active)
same,IC50,[2],> 47.1 µM (inactive)
Cc1ccc(S(=O)(=O)N2CCN(C(=O)CCc3nc(O)c4ccccc4n3)CC2)c(C)c1,IC50,H9c2,> 79 µM (inactive)
COc1cccc(Cn2c(=O)c(-c3cccs3)nc3cnc(N(C)C)nc32)c1,AC50,Cytochrome P450 2C19; read-out: AC50,0.00631 µM (inconclusive)
same,AC50,Cytochrome P450 3A4,15.8 µM (inconclusive)
same,AC50,Cytochrome P450 1A2,15.8 µM (inconclusive)
CCOC(=O)Cc1csc(NC(=O)c2c(O)c3c(n(CC(C)C)c2=O)CCCC3)n1,CC50,[3],> 40 µM (active)
COc1ccc(NC(=O)c2cc(S(=O)(=O)N3CCS(=O)(=O)CC3)ccc2Cl)cc1,AC50,Cytochrome P450 3A4,14.1 µM (inconclusive)
COc1cccc(Nc2nc3ccccc3n3nnnc23)c1,IC50,H9c2,> 79 µM (inactive)
CCC(C)NS(=O)(=O)c1ccc(OCC(=O)Nc2ccc3c(c2)OCCO3)cc1 (stereo unspecified),AC50,Cytochrome P450 2C19; read-out: AC50,7.08 µM (inconclusive)
same,AC50,Cytochrome P450 3A4,15.8 µM (inconclusive)
CC#CCCCC(=O)Nc1ccccc1C(=O)O,EC50,[1],> 53 µM (inactive)
same,IC50,[2],> 47.1 µM (inactive)
CCOc1ccc(NC(=O)Nc2cc(C)ccc2OC)cc1,EC50,[1],> 53 µM (inactive)
same,IC50,[2],> 47.1 µM (inactive)
Fc1ccc(Nc2ccnc(-c3ccoc3)n2)cc1,AC50,Cytochrome P450 2D6,20 µM (inconclusive)
O=C(c1ccccc1)c1c[nH]c(C(=O)NCc2cccnc2)c1,AC50,Cytochrome P450 2D6,15.8 µM (inconclusive)
O=C(C[C@H]1C/C=C\CC[C@H](Cc2ccc(F)cc2)C(=O)O[C@@H](c2ccccc2)CNC1=O)N[C@H](CO)Cc1ccccc1,IC50,H9c2,> 79 µM (inactive)
CCn1nc(C(=O)NNC(=O)c2cc(Cl)ccc2OC)c2ccccc2c1=O,IC50,H9c2,> 79 µM (inactive)
CCN(CC(=O)Nc1c(F)cccc1F)C(=O)c1ccc2c(=O)n3c(nc2c1)CCC3,EC50,[1],> 53 µM (inactive)
same,IC50,[2],> 47.1 µM (inactive)
Cc1nnc(-c2cnn(-c3ccccc3)c2N)n1Cc1ccccc1,AC50,Cytochrome P450 3A4,25.1 µM (inconclusive)
same,AC50,Cytochrome P450 2C9,39.8 µM (inconclusive)
CCN1CCN(C(=O)C2c3cc(OC)c(OC)cc3C(=O)N3CCc4ccccc4C23)CC1 (stereo unspecified),AC50,Cytochrome P450 2C19,inconclusive
same,AC50,Cytochrome P450 3A4,28.2 µM (inconclusive)
Cc1ccc(NC(=O)CSC(C)C(=O)OCc2cc(=O)oc3cc(O)ccc23)cc1 (stereo unspecified),IC50,H9c2,> 79 µM (inactive)
Cc1ccc(NC(=O)COC(=O)CCC(=O)c2cccs2)c(Br)c1,EC50,[1],> 53 µM (inactive)
same,IC50,[2],> 47.1 µM (inactive)
Cc1cc(OCc2nc(N)nc(N)c2-c2ccc(Cl)c(Cl)c2)ccc1[N+](=O)[O-],AC50,Cytochrome P450 3A4,3.98 µM (inconclusive)
same,AC50,Cytochrome P450 1A2,5.01 µM (inconclusive)
Cc1ccc2nc(N/N=C/c3ccccc3C#N)nc(-c3ccccc3)c2c1,CC50,[3],28.8 µM (active)
C/C(CC(=O)Nc1ccc(Cl)c(C(F)(F)F)c1)=N\NC(=O)c1ccccc1O,EC50,[4],2.77 µM (active)
same,EC50,Streptococcus,3.68 µM (active)
C=CC/N=C1\CC(C)(C)CC(O)=C1C(=O)c1ccccc1,AC50,Cytochrome P450 3A4,25.1 µM (inconclusive)
C/C(=N\Nc1ccc(S(=O)(=O)N2CCCCC2)cn1)c1cccc(Br)c1,CC50,[3],> 40 µM (active)
